Laboratory results from ChEMBL document CHEMBL1697723, “A predictive ligand-based Bayesian model for human drug-induced liver injury” (Drug Metab Dispos, 2010).

Each molecule was assayed on Hepatotoxicity (assay: Human drug-induced liver injury (DILI) modelling dataset from Ekins et al). Conditions: not given.
With `CN1C(C(=O)Nc2nccs2)=C(O)c2ccccc2S1(=O)=O` [SUDOXICAM] the Hepatotoxicity was “DILI positive (test set)”.
For `Clc1ccc(CSC(Cn2ccnc2)c2ccc(Cl)cc2Cl)cc1.O=[N+]([O-])O` (centres undefined) [SULCONAZOLE NITRATE], the Hepatotoxicity was “DILI negative (test set)”.
With `Nc1ccc(S(=O)(=O)NC(=O)c2ccccc2)cc1` [SULFABENZAMIDE] the Hepatotoxicity was “DILI negative (test set)”.
In the case of `Cc1nnc(NS(=O)(=O)c2ccc(N)cc2)s1` [SULFAMETHIZOLE], the Hepatotoxicity is reported as “DILI positive (test set)”.
In the case of `O=C(O)c1cc(/N=N/c2ccc(S(=O)(=O)Nc3ccccn3)cc2)ccc1O` [SULFASALAZINE], the Hepatotoxicity is reported as “DILI positive (training set)”.
In the case of `O=C1C(CC[S+]([O-])c2ccccc2)C(=O)N(c2ccccc2)N1c1ccccc1` (centres undefined) [SULFINPYRAZONE], the Hepatotoxicity is reported as “DILI positive (test set)”.
In the case of `O=C1OC(c2ccc(O)c(S(=O)(=O)O)c2)(c2ccc(O)c(S(=O)(=O)O)c2)c2c(Br)c(Br)c(Br)c(Br)c21` [SULFOBROMOPHTHALEIN], the Hepatotoxicity is reported as “DILI positive (test set)”.
`Cc1nc(C)c2c(n1)N(Cc1ccc(-c3ccccc3-c3nnn[nH]3)cc1)C(=O)CC2` [TASOSARTAN] was tested, and the Hepatotoxicity was “DILI positive (test set)”.
With `Cc1scc2c1N(C(=O)CN1CCN(C)CC1)c1ccccc1NC2=O` [TELENZEPINE] the Hepatotoxicity was “DILI negative (test set)”.
`CC1CN(c2cc3c(cc2F)c(=O)c(C(=O)O)cn3-c2ccc(F)cc2F)CCN1` (centres undefined) [TEMAFLOXACIN] was tested, and the Hepatotoxicity was “DILI positive (test set)”.
`Cn1nnc2c(C(N)=O)ncn2c1=O` [TEMOZOLOMIDE] was tested, and the Hepatotoxicity was “DILI negative (training set)”.
In the case of `CC(C)(C)c1ccc(C(O)CCCN2CCC(C(O)(c3ccccc3)c3ccccc3)CC2)cc1` (centres undefined) [TERFENADINE], the Hepatotoxicity is reported as “DILI negative (training set)”.
`CCCCNc1ccc(C(=O)OCCN(C)C)cc1.Cl` [TETRACAINE HYDROCHLORIDE] was tested, and the Hepatotoxicity was “DILI negative (training set)”.
`CN(C)[C@@H]1C(O)=C(C(N)=O)C(=O)[C@@]2(O)C(O)=C3C(=O)c4c(O)cccc4[C@@](C)(O)[C@H]3C[C@@H]12` [TETRACYCLINE] was tested, and the Hepatotoxicity was “DILI positive (training set)”.
`Cn1c(=O)c2[nH]cnc2n(C)c1=O.O` [THEOPHYLLINE] was tested, and the Hepatotoxicity was “DILI negative (test set)”.
With `CC(=N)S` [THIOACETAMIDE] the Hepatotoxicity was “DILI positive (training set)”.
`CN1c2ccccc2C(NCCCCCCC(=O)O)c2ccc(Cl)cc2S1(=O)=O` (centres undefined) [TIANEPTINE] was tested, and the Hepatotoxicity was “DILI positive (training set)”.
With `CC(C)(C)NC[C@H](O)COc1nsnc1N1CCOCC1.O=C(O)/C=C\C(=O)O` [TIMOLOL MALEATE] the Hepatotoxicity was “DILI positive (training set)”.
With `NC[C@H]1O[C@H](O[C@H]2[C@H](O)[C@@H](O[C@H]3O[C@H](CO)[C@@H](O)[C@H](N)[C@H]3O)[C@H](N)C[C@@H]2N)[C@H](N)C[C@@H]1O` [TOBRAMYCIN] the Hepatotoxicity was “DILI positive (test set)”.
With `Cc1ccc(S(=O)(=O)NC(=O)NN2CCCCCC2)cc1` [TOLAZAMIDE] the Hepatotoxicity was “DILI positive (test set)”.
With `Cc1ccc(C(=O)c2ccc(CC(=O)O)n2C)cc1` [TOLMETIN] the Hepatotoxicity was “DILI positive (training set)”.
`COc1ccc2c(C(=S)N(C)CC(=O)O)cccc2c1C(F)(F)F` [TOLRESTAT] was tested, and the Hepatotoxicity was “DILI positive (test set)”.
In the case of `CC1(C)O[C@@H]2[C@@H](CO[C@@]3(COS(N)(=O)=O)OC(C)(C)O[C@@H]23)O1` [TOPIRAMATE], the Hepatotoxicity is reported as “DILI negative (test set)”.
In the case of `Cl.O=c1n(CCCN2CCN(c3cccc(Cl)c3)CC2)nc2ccccn12` [TRAZODONE HYDROCHLORIDE], the Hepatotoxicity is reported as “DILI positive (training set)”.
For `CC1=C(/C=C/C(C)=C/C=C/C(C)=C/C(=O)O)C(C)(C)CCC1` [TRETINOIN], the Hepatotoxicity was “DILI positive (training set)”.
`ClC=C(Cl)Cl` [TRICHLOROETHYLENE] was tested, and the Hepatotoxicity was “DILI positive (test set)”.
`CN1CCN(CCCN2c3ccccc3Sc3ccc(C(F)(F)F)cc32)CC1` [TRIFLUOPERAZINE] was tested, and the Hepatotoxicity was “DILI positive (training set)”.
With `CN1C(=O)OC(C)(C)C1=O` [TRIMETHADIONE] the Hepatotoxicity was “DILI positive (training set)”.
With `COc1cc(C(=O)NCc2ccc(OCCN(C)C)cc2)cc(OC)c1OC.Cl` [TRIMETHOBENZAMIDE HYDROCHLORIDE] the Hepatotoxicity was “DILI positive (test set)”.
`CN(C)CCN(Cc1ccccc1)c1ccccn1.Cl` [TRIPELENNAMINE HYDROCHLORIDE] was tested, and the Hepatotoxicity was “DILI positive (test set)”.
For `Cc1c(C)c2c(c(C)c1O)CCC(C)(COc1ccc(CC3SC(=O)NC3=O)cc1)O2` (centres undefined) [TROGLITAZONE], the Hepatotoxicity was “DILI positive (test set)”.
For `CO[C@H]1C[C@H](O[C@H]2[C@H](C)[C@@H](O[C@@H]3O[C@H](C)C[C@H](N(C)C)[C@H]3OC(C)=O)[C@@H](C)C[C@@]3(CO3)C(=O)[C@H](C)[C@@H](OC(C)=O)[C@@H](C)[C@@H](C)OC(=O)[C@@H]2C)O[C@@H](C)[C@@H]1OC(C)=O` [TROLEANDOMYCIN], the Hepatotoxicity was “DILI positive (test set)”.
In the case of `N[C@@H]1[C@H]2CN(c3nc4c(cc3F)c(=O)c(C(=O)O)cn4-c3ccc(F)cc3F)C[C@@H]12` [TROVAFLOXACIN], the Hepatotoxicity is reported as “DILI positive (training set)”.
With `C[C@H](CCC(=O)O)[C@H]1CC[C@H]2[C@@H]3[C@@H](O)C[C@@H]4C[C@H](O)CC[C@]4(C)[C@H]3CC[C@]12C` [URSODIOL] the Hepatotoxicity was “DILI negative (training set)”.
`CCCCC(=O)O` [VALERIC ACID] was tested, and the Hepatotoxicity was “DILI negative (test set)”.
In the case of `CN[C@H](CC(C)C)C(=O)N[C@H]1C(=O)N[C@@H](CC(N)=O)C(=O)N[C@H]2C(=O)N[C@H]3C(=O)N[C@H](C(=O)N[C@H](C(=O)O)c4cc(O)cc(O)c4-c4cc3ccc4O)[C@H](O)c3ccc(c(Cl)c3)Oc3cc2cc(c3O[C@@H]2O[C@H](CO)[C@@H](O)[C@H](O)[C@H]2O[C@H]2C[C@](C)(N)[C@H](O)[C@H](C)O2)Oc2ccc(cc2Cl)[C@H]1O` [VANCOMYCIN], the Hepatotoxicity is reported as “DILI positive (training set)”.
For `Nc1ncnc2c1ncn2[C@@H]1O[C@H](CO)[C@@H](O)[C@@H]1O` [VIDARABINE], the Hepatotoxicity was “DILI negative (training set)”.
For `CC[C@]1(O)C[C@@H]2CN(CCc3c([nH]c4ccccc34)[C@@](C(=O)OC)(c3cc4c(cc3OC)N(C)[C@H]3[C@@](O)(C(=O)OC)[C@H](OC(C)=O)[C@]5(CC)C=CCN6CC[C@]43[C@@H]65)C2)C1.O=S(=O)(O)O` [VINBLASTINE SULFATE], the Hepatotoxicity was “DILI negative (test set)”.
In the case of `CC[C@]1(O)C[C@H]2CN(CCc3c([nH]c4ccccc34)[C@@](C(=O)OC)(c3cc4c(cc3OC)N(C=O)[C@H]3[C@@](O)(C(=O)OC)[C@H](OC(C)=O)[C@]5(CC)C=CCN6CC[C@]43[C@@H]65)C2)C1.O=S(=O)(O)O` [VINCRISTINE SULFATE], the Hepatotoxicity is reported as “DILI positive (test set)”.
In the case of `CCCCCCCCCCCCCCCC(=O)OC/C=C(C)/C=C/C=C(C)/C=C/C1=C(C)CCCC1(C)C` [VITAMIN A PALMITATE], the Hepatotoxicity is reported as “DILI positive (test set)”.
With `CC(=O)CC(c1ccccc1)c1c(O)c2ccccc2oc1=O` (centres undefined) [WARFARIN] the Hepatotoxicity was “DILI negative (training set)”.
For `CCOC(=O)CN[C@@H](C(=O)N1CC[C@H]1C(=O)NCc1ccc(/C(N)=N\O)cc1)C1CCCCC1` [XIMELAGATRAN], the Hepatotoxicity was “DILI positive (test set)”.
`COc1cc(C(=O)NS(=O)(=O)c2ccccc2C)ccc1Cc1cn(C)c2ccc(NC(=O)OC3CCCC3)cc12` [ZAFIRLUKAST] was tested, and the Hepatotoxicity was “DILI positive (training set)”.
With `Cc1cn([C@H]2C[C@H](N=[N+]=[N-])[C@@H](CO)O2)c(=O)[nH]c1=O` [ZIDOVUDINE] the Hepatotoxicity was “DILI positive (training set)”.
In the case of `CC(c1cc2ccccc2s1)N(O)C(N)=O` (centres undefined) [ZILEUTON], the Hepatotoxicity is reported as “DILI positive (training set)”.
In the case of `Cc1ccc(-c2nc3ccc(C)cn3c2CC(=O)N(C)C)cc1` [ZOLPIDEM], the Hepatotoxicity is reported as “DILI negative (test set)”.
In the case of `Cc1cc(CC(=O)O)n(C)c1C(=O)c1ccc(Cl)cc1` [ZOMEPIRAC], the Hepatotoxicity is reported as “DILI negative (training set)”.
AURANOFIN was tested, and the Hepatotoxicity was “DILI positive (test set)”.
With AUROTHIOGLUCOSE the Hepatotoxicity was “DILI positive (test set)”.
In the case of AUROTHIOLAMATE, the Hepatotoxicity is reported as “DILI positive (test set)”.
In the case of BISMUTH SUBSALICYLATE, the Hepatotoxicity is reported as “DILI negative (test set)”.
In the case of CADMIUM DICHLORIDE, the Hepatotoxicity is reported as “DILI positive (training set)”.
For CARBOPLATIN, the Hepatotoxicity was “DILI positive (test set)”.
For CISPLATIN, the Hepatotoxicity was “DILI positive (test set)”.
With CYANOCOBALAMIN the Hepatotoxicity was “DILI negative (training set)”.
GALLIUM NITRATE HYDRATE was tested, and the Hepatotoxicity was “DILI negative (training set)”.
LACTOSE, ANHYDROUS was tested, and the Hepatotoxicity was “DILI negative (test set)”.
For POTASSIUM DICHROMATE, the Hepatotoxicity was “DILI positive (training set)”.

Same assay, conditions: Liver
In the case of `Nc1ccc(S(N)(=O)=O)cc1` [SULFANILAMIDE], the Hepatotoxicity is reported as “DILI positive (test set)”.
With `Nc1c2c(nc3ccccc13)CCCC2` [TACRINE] the Hepatotoxicity was “DILI negative (training set)”.
In the case of `CC[C@H]1OC(=O)[C@H](C)C(=O)[C@H](C)[C@@H](O[C@@H]2O[C@H](C)C[C@H](N(C)C)[C@H]2O)[C@](C)(OC)C[C@@H](C)C(=O)[C@H](C)[C@H]2N(CCCCn3cnc(-c4cccnc4)c3)C(=O)O[C@]12C` [TELITHROMYCIN], the Hepatotoxicity is reported as “DILI positive (test set)”.
`Cc1ncc(C[n+]2csc(CCO)c2C)c(N)n1` [THIAMINE ION] was tested, and the Hepatotoxicity was “DILI negative (test set)”.
For `Clc1ccccc1CN1CCc2sccc2C1` [TICLOPIDINE], the Hepatotoxicity was “DILI positive (training set)”.
In the case of `Cc1ccc(C(=O)c2cc(O)c(O)c([N+](=O)[O-])c2)cc1` [TOLCAPONE], the Hepatotoxicity is reported as “DILI positive (test set)”.
For `Cl.N[C@@H]1C[C@H]1c1ccccc1` [TRANYLCYPROMINE HYDROCHLORIDE], the Hepatotoxicity was “DILI negative (training set)”.
With `COc1cc(Cc2cnc(N)nc2N)cc(OC)c1OC` [TRIMETHOPRIM] the Hepatotoxicity was “DILI positive (test set)”.
With `NC(CO)(CO)CO` [TROMETHAMINE] the Hepatotoxicity was “DILI negative (test set)”.
In the case of `Oc1ncc(N(CCCl)CCCl)c(O)n1` [URACIL MUSTARD], the Hepatotoxicity is reported as “DILI positive (test set)”.
For `Nc1ccn([C@H]2CC[C@@H](CO)O2)c(=O)n1` [ZALCITABINE], the Hepatotoxicity was “DILI negative (training set)”.
